According to ChEMBL document CHEMBL1147125, “Microbial transformation of (-)-guaiol and antibacterial activity of its transformed products” (2007):

Key:
Pseudomonas aeruginosa = assay: Antibacterial activity against Pseudomonas aeruginosa at 100 ug/100 uL after 24 hrs; format: functional
Shigella flexneri = assay: Antibacterial activity against Shigella flexneri at 100 ug/100 uL after 24 hrs; format: functional
Bacillus subtilis = assay: Antibacterial activity against Bacillus subtils at 100 ug/100 uL after 24 hrs; format: functional
Salmonella typhi = assay: Antibacterial activity against Salmonella typhi at 100 ug/100 uL after 24 hrs; format: functional, Salmonella enterica subsp. enterica serovar Typhi
Staphylococcus aureus = assay: Antibacterial activity against Staphylococcus aureus at 100 ug/100 uL after 24 hrs; format: functional
Escherichia coli = assay: Antibacterial activity against Escherichia coli at 100 ug/100 uL after 24 hrs; format: functional

For `C[C@H]1CC[C@@H](C(C)(C)O)C(=O)C2=C1CC[C@@H]2C`, the “inhibition zone (IZ)” value (Pseudomonas aeruginosa) was 13 mm, the “inhibition zone (IZ)” value (Shigella flexneri) was 10 mm and the “inhibition zone (IZ)” value (Bacillus subtilis) was 11 mm.

With `C[C@@H]1C2=CC[C@H](C)[C@@H]2C[C@H](C(C)(C)O)C[C@@H]1O` the “inhibition zone (IZ)” value (Pseudomonas aeruginosa) was 20 mm and the “inhibition zone (IZ)” value (Salmonella typhi) was 16 mm.

In the case of `C[C@@H]1C2=C(C[C@H](C(C)(C)O)C[C@H]1O)[C@@H](C)[C@@H](O)C2`, the “inhibition zone (IZ)” value (Pseudomonas aeruginosa) is reported as 17 mm, the “inhibition zone (IZ)” value (Staphylococcus aureus) is reported as 20 mm and the “inhibition zone (IZ)” value (Salmonella typhi) is reported as 15 mm.

In the case of `C[C@H]1CC[C@@H](C(C)(C)O)C[C@@H]2C1=CC(=O)[C@@H]2C`, the “inhibition zone (IZ)” value (Pseudomonas aeruginosa) is reported as 13 mm and the “inhibition zone (IZ)” value (Bacillus subtilis) is reported as 11 mm.

In the case of `C[C@@H]1[C@@H]2C[C@H](C(C)(C)O)CC[C@H](C)C2=C[C@@H]1O`, the “inhibition zone (IZ)” value (Pseudomonas aeruginosa) is reported as 20 mm and the “inhibition zone (IZ)” value (Salmonella typhi) is reported as 15 mm.

With `C[C@H]1CC[C@@H](C(C)(C)O)CC2=C1CC[C@@H]2C` [GUAIOL] the “inhibition zone (IZ)” value (Pseudomonas aeruginosa) was 17 mm, the “inhibition zone (IZ)” value (Escherichia coli) was 16 mm and the “inhibition zone (IZ)” value (Salmonella typhi) was 24 mm. For the same compound, the “inhibition zone (IZ)” value (Shigella flexneri) was 17 mm and the “inhibition zone (IZ)” value (Bacillus subtilis) was 15 mm.

For `C[C@@H](O)[C@H]1C(=O)N2C(C(=O)O)=C(SCCNC=N)C[C@H]12` [IMIPENEM ANHYDROUS], the “inhibition zone (IZ)” value (Pseudomonas aeruginosa) was 24 mm, the “inhibition zone (IZ)” value (Escherichia coli) was 30 mm and the “inhibition zone (IZ)” value (Staphylococcus aureus) was 33 mm. The “inhibition zone (IZ)” value (Salmonella typhi) was 25 mm, the “inhibition zone (IZ)” value (Shigella flexneri) was 27 mm and the “inhibition zone (IZ)” value (Bacillus subtilis) was 33 mm.
